Data set [1] in a line: Drug levels in whole brain homogenate by LC-MS/MS after subcutaneous injection. Format: in vivo. The conditions noted are these: Sprague Dawley rats, 5 mg/kg subcutaneous, over 36 hours, compared with elamipretide. Here is the method: Sprague Dawley rats were injected subcutaneously with 5 mg/kg of Compound Ia or elamipretide (n=4 per time-point). Animals were sacrificed at the indicated timepoints and transcardial perfusion was performed. Drug levels in whole brain homogenate were determined by LC-MS/MS.

Data set [2] concerns SOD1 G93A high copy transgenic mice. Briefly: Forelimb grip strength test in SOD1 G93A mouse model of ALS. In kind it is in vivo. The conditions noted are these: 10 weeks on drug; for grip strength Mean Diff. (Dunnett's multiple comparisons test, Vehicle vs. 0.5 mg/kg): 0.5 mg/kg daily ip; for grip strength Mean Diff. (Dunnett's multiple comparisons test, Vehicle vs. 5.0 mg/kg): 5.0 mg/kg daily ip. Here is the method:
Study Design. Three experimental groups of n=20 (10 male, 10 female) SOD1 G93A high copy transgenic mice were dosed daily via intraperitoneal administration of vehicle control; (R)-2-amino-N—((S)-1-(((S)-5-amino-1-(3-benzyl-1,2,4-oxadiazol-5-yl)pentyl)amino)-3-(4-hydroxy-2,6-dimethylphenyl)-1-oxopropan-2-yl)-5-guanidinopentanamide (as its tris-HCl salt-(Ia)) at 0.5 mg/kg; or (R)-2-amino-N—((S)-1-(((S)-5-amino-1-(3-benzyl-1,2,4-oxadiazol-5-yl)pentyl)amino)-3-(4-hydroxy-2,6-dimethylphenyl)-1-oxopropan-2-yl)-5-guanidinopentanamide (as its tris-HCl salt—(Ia)) at 5.0 mg/kg. Animals were dosed beginning at 8 weeks of age and dosing was continued until humane end of life (defined by the inability of animal to right itself from either side within 30 seconds when placed on its side). Experimental endpoints and in-life collections and observations were as follows: • 1. Bodyweight measurement. Daily recording of weight. • 2. Neurological scoring. Weekly NeuroScore, a qualitative assessment of neurological disease progression based upon a five-point grading system. Scoring is defined as follows: • Score 0: Full extension of hind legs away from the lateral midline when the mouse is suspended by its tail, and the mouse can hold this extension for 2 seconds, being suspended 3 times consecutively. • Score 1: Collapse or partial collapse of the leg extension toward the lateral midline or trembling of hind legs during the tail suspension. • Score 2: Toes curl under at least twice during walking of 12 inches, or any part of the foot is dragging along the cage bottom or table. • Score 3: Rigid paralysis or minimal joint movement, the foot is not being used for forward motion. • Score 4: The mouse cannot right itself within 30 sec from either side. • 3. Grip strength test. Weekly forelimb grip strength, performed as follows: • a. Subjects are weighed and acclimated to the testing room for at least 60 min. • b. Equipment: Bioseb grip strength meter equipped with a grid for grasping that is suited for mice. • c. Mice are lowered towards the grid by their tails to allow for visual placing and for the mouse to grip the grid with their forepaws. • d. Subjects are firmly pulled horizontally away from the grid (parallel to the bench) for 3 consecutive trials with a brief (approximately 30 sec) rest period on the bench between trials. • e. The average force in grams of the 3 forepaw and 3 all-paws trials are analyzed with and without normalization to body weight. • 4. Retro-orbital blood collection. Bi-weekly retroorbital eye bleeds to determine drug exposure levels as well as levels of neurofilament light chain, a biomarker of axonal damage shown to correlate with ALS disease progression in human patients. Briefly, mice are sedated with isoflurane (5% induction, 2% maintenance) in O2. […]
Systemic administration of (R)-2-amino-N—((S)-1-(((S)-5-amino-1-(3-benzyl-1,2,4-oxadiazol-5-yl)pentypamino)-3-(4-hydroxy-2,6-dimethylphenyl)-1-oxopropan-2-yl)-5-guanidinopentanamide attenuates decline in muscle strength in ALS mouse model. As shown in FIG. 2A and Table 1A, systemic administration of (R)-2-amino-N—((S)-1-(((S)-5-amino-1-(3-benzyl-1,2,4-oxadiazol-5-yl)pentyl)amino)-3-(4-hydroxy-2,6-dimethylphenyl)-1-oxopropan-2-yl)-5-guanidinopentanamide (as its tris-HCl salt—(Ia)) attenuates the loss of grip strength in male SOD1 G93A transgenic mice. Grip strength values were determined at baseline (week 8) and through end of life for each animal. […]

Data set [3] deals with mitochondrial respiration in brain homogenate from the infarcted area. Briefly: Mitochondrial respiration (respiratory control ratio) in brain homogenate after endothelin-1 induced ischemic stroke. In kind it is in vivo, Sprague Dawley rats. Conditions: rats, ET-1 middle cerebral artery occlusion, 5 mg/kg sc at 24 and 4 hours prior to ischemia, measured 24 hours after onset. Here is the method: Ischemic stroke was induced in Sprague Dawley rats via middle cerebral artery occlusion with the vasoconstrictive peptide endothelin-1 (ET-1; 240 pmol per injection). Compound Ia was administered to each rat at 24 and 4 hours prior to onset of ischemia via subcutaneous injection at 5 mg/kg. Mitochondrial respiration was measured in brain homogenate excised from the infarcted area 24 hours following the onset of ischemia using high resolution respirometry (OxyGraph 02K). Respiratory control ratio was calculated as complex I supported oxidative phosphorylation divided by Complex I linked leak respiration. Results are illustrated in FIG. 5B, ** p<0.01, one-way ANOVA.

The results in this text go back to US12016843B2, “Compositions and methods for the treatment of amyotrophic lateral sclerosis, parkinson's disease, parkinson's disease with dementia, dementia with lewy bodies, and multiple system atrophy” (priority 2019, dated 2024).

Regarding `Cc1cc(O)cc(C)c1C[C@H](NC(=O)[C@H](N)CCCNC(=N)N)C(=O)N[C@@H](CCCCN)c1nc(Cc2ccccc2)no1.Cl.Cl.Cl` [Compound Ia, (R)-2-amino-N—((S)-1-(((S)-5-amino-1-(3-benzyl-1,2,4-oxadiazol-5-yl)pentyl)amino)-3-(4-hydroxy-2,6-dimethylphenyl)-1-oxopropan-2-yl)-5-guanidinopentanamide·3HCl], the “brain exposure (drug levels in whole brain homogenate)” value in data set [1] is “higher than that of elamipretide”. In data set [2] (female SOD1 G93A mice), the “grip strength Mean Diff. (Dunnett's multiple comparisons test, Vehicle vs. 0.5 mg/kg)” value is reported as −6.081 and the “grip strength Mean Diff. (Dunnett's multiple comparisons test, Vehicle vs. 5.0 mg/kg)” value is given as −7.905. Moreover, in data set [2] (male SOD1 G93A mice), the “grip strength Mean Diff. (Dunnett's multiple comparisons test, Vehicle vs. 0.5 mg/kg)” value is −0.7940 and the “grip strength Mean Diff. (Dunnett's multiple comparisons test, Vehicle vs. 5.0 mg/kg)” value is reported as −11.90. Besides, the “loss of grip strength” value in data set [2] (male SOD1 G93A mice, 5.0 mg/kg, p=0.08) was “trend in protection from loss of grip strength”. For the same compound, in data set [3], the “mitochondrial respiration in brain (respiratory control ratio)” value is “restored mitochondrial respiration in brain”.
